What is called inhibition is the share of the control response that was lost under treatment. One may read the Tmax as the time at which the peak concentration occurs. Usually Cmax stands for the maximum level reached in the sampled fluid or tissue. As usually defined, the half-life is the time in which the quantity being followed falls by half. A higher half-life goes with slow decline. One may read the AUC(0-t) as the area under the concentration-time curve up to a stated or last time point. A low value points to less exposure.

Structures are written as SMILES.

The target in one data set is CYP3A4 (Homo sapiens, UniProt P08684). The data set can be described thus: Inhibitory activity of 200 µM SPP100 on cDNA-derived CYP3A4 enzyme in microsome prepared from human lymphoblastoid cell line. The format is ADME, microsomes. Details: conc 200 uM, interact cpd conc 120 uM. Particulars: probe testosterone (120 uM).
Another data set addresses CYP2C9 (Homo sapiens, UniProt P11712). Kind of data set: Inhibitory activity of 200 uM SPP100 on 220 Pmoles of cDNA-derived CYP2C9 enzyme in microsome prepared from human lymphoblastoid cell line. The format is ADME, microsomes. Details: conc 200 uM, interact cpd conc 6 uM. Particulars: probe diclofenac.
Data set [1] is described as follows: Bioavailability of aliskiren in receiver rat following duodenal infusion of radioactivity through bile from donor rat treated with single intravenous administration of 10 mg.Kg-1 [14C] aliskiren hemifumarate. The format is ADME, organism-based, HAN:WIST(SPF). The conditions noted are these: in vivo.
The next data set has as its target CYP2C19 (Homo sapiens, UniProt P33261). The data set can be described thus: Inhibitory activity of 20 uM SPP100 on 1131 Pmoles of cDNA-derived CYP2C19 enzyme in microsome prepared from human lymphoblastoid cell line. The format is ADME, microsomes. Also on record: conc 20 uM, interact cpd conc 50 uM. The conditions noted are these: probe (S)-mephenytoin.
A short description of data set [2]: Excretion (0-72h) of aliskiren in faeces following intravenous administration of [14C] aliskiren hemifumarate at 1 mg.Kg-1 level in marmoset. The data set is classed as ADME, organism-based, Callithrix jacchus, Feces. The conditions noted are these: in vivo.
A short description of data set [3]: Tmax (0-168h) of total radioactivity following single oral administration of [14C] aliskiren hemifumarate at 3 mg.Kg-1 level in marmoset. The format is ADME, organism-based, Callithrix jacchus, Plasma. Particulars: in vivo.
Data set [4] is described as follows: Concentration of radioactivity in the kidney medulla following repeated oral administration of [14C] aliskiren hemifumarate at 100 mg.Kg-1 level studied at 24h after 10th dose in rat. Particulars: in vivo. The data set is classed as ADME, organism-based, Albino HAN:WIST, Renal medulla.
Data set [5] in a line: Excretion of radioactivity (0-96h) in faeces following single intravenous dose of 10 mg.Kg-1 [14C] aliskiren hemifumarate in rat. The data set is classed as ADME, organism-based, Albino HAN:WIST, Feces. Particulars: in vivo.
Data set [6] in a line: Excretion (48h) of radioactivity in faeces following oral administration of [14C] aliskiren hemifumarate at 100 mg.Kg-1 level in rat. The data set is classed as ADME, organism-based, Lister-Hooded, Feces. The conditions noted are these: in vivo.
Data set [7] in a line: Excretion (24h) of radioactivity in urine following oral administration of [14C] aliskiren hemifumarate at 100 mg.Kg-1 level in rat. The conditions noted are these: in vivo. The data set is classed as ADME, organism-based, Lister-Hooded.
Data set [8] can be described thus: Concentration of radioactivity in the liver following repeated oral administration of [14C] aliskiren hemifumarate at 100 mg.Kg-1 level studied at 2h after 7th dose in rat. The data set is classed as ADME, organism-based, Albino HAN:WIST. Particulars: in vivo.
Data set [9] in a line: Tmax of [14C] aliskiren hemifumarate following single oral dose of [14C] aliskiren hemifumarate at 500 mg.Kg-1 level in mouse. The conditions noted are these: in vivo. The format is ADME, organism-based, TgRasH2, Plasma.
The nature of data set [10]: Excretion (0-168h) of 14C-radioactivity in urine following single oral dose of 300 mg [14C]SPP100 studied in healthy men. The data set is classed as ADME, organism-based. The conditions noted are these: human, in vivo, at 300 mg.
Data set [11] can be described thus: Faecal elimination of aliskiren following single intravenous dose of [14C] aliskiren hemifumarate at 10 mg.Kg-1 level in mouse. The format is ADME, organism-based, TgRasH2, Feces. Particulars: in vivo.
Data set [12] can be described thus: Concentration of radioactivity in the brown fat following repeated oral administration of [14C] aliskiren hemifumarate at 100 mg.Kg-1 level studied at 24h after 3rd dose in rat. The data set is classed as ADME, organism-based, Albino HAN:WIST, Brown adipose tissue. Particulars: in vivo.
A short description of data set [13]: Cmax of radioactivity following repeated oral administration of [14C] aliskiren hemifumarate at 100 mg.Kg-1 level studied after 2h of dosing on day 10 in rat. The data set is classed as ADME, organism-based, Albino HAN:WIST. The conditions noted are these: in vivo, read-out: Cmax(10).
The target in another data set is Cytochrome P450 2E1 (Homo sapiens, UniProt P05181). Kind of data set: Activity of human recombinant CYP2E1 assessed as enzyme contribution (% total relative CL) towards [14C]SPP100 hemifumarate metabolism in human liver microsome. The data set is classed as ADME. Particulars: microsomes.
The nature of data set [14]: Mean excretion of radioactivity (24-48h) in urine and faeces following single intravenous dose of 10 mg.Kg-1 [14C] aliskiren hemifumarate in mouse. The format is ADME, organism-based, TgRasH2, Urine/Feces. Particulars: in vivo.
Data set [15] can be described thus: Excretion of radioactivity (24-48h) in faeces following single oral dose of 100 mg.Kg-1 [14C] aliskiren hemifumarate in rat. The format is ADME, organism-based, Albino HAN:WIST, Feces. The conditions noted are these: in vivo.
The nature of data set [16]: Tmax of aliskiren hemifumarate following 4 week oral dietary dosing of aliskiren hemifumarate at 1000 mg.Kg-1 level in male mouse. The data set is classed as ADME, organism-based. Particulars: CB6F1-TGrasH2, mouse, in vivo.
A short description of data set [17]: Effect of 4 week oral dietary dosing of aliskiren hemifumarate at 1000 mg.Kg-1 level on spermatogenesis in male mouse. The conditions noted are these: in vivo, 672 h. The format is toxicity, organism-based, CB6F1-TGrasH2, Testis.
Data set [18] can be described thus: Effect of 4 week oral dietary dosing of aliskiren hemifumarate at 2000 mg.Kg-1 level on histopathology of corpora lutea in female mouse. Particulars: in vivo, 672 h. The data set is classed as toxicity, organism-based, CB6F1-TGrasH2, Corpus luteum.
Data set [19] in a line: t1/2 of aliskiren hemifumarate following 2 week oral dosing of aliskiren hemifumarate at 10 mg.Kg-1 level studied on […] in male Callithrix jacchus. The format is ADME, organism-based. The conditions noted are these: marmoset, plasma.
Data set [20] is described as follows: Cmax of aliskiren hemifumarate following 2 week oral dosing of aliskiren hemifumarate at 100 mg.Kg-1 level studied on day 1 in male Callithrix jacchus. The format is ADME, organism-based. The conditions noted are these: marmoset, plasma.
The nature of data set [21]: AUC(0-24h) of aliskiren hemifumarate following 2 week oral dosing of aliskiren hemifumarate at 100 mg.Kg-1 level studied on day 1 in female Callithrix jacchus. The data set is classed as ADME, organism-based. Particulars: marmoset, plasma.
The nature of data set [22]: AUC (0-24h)/dose of aliskiren hemifumarate following 4 week oral dietary dosing of aliskiren hemifumarate at 1500 mg.Kg-1 level in female mouse. The conditions noted are these: in vivo. The format is ADME, organism-based, CB6F1-TGrasH2, Plasma.
A short description of data set [23]: Cmax of aliskiren hemifumarate following 8 day once-daily dosing of SPP100B oral solution at 40 mg level studied on day 8 in men. The format is ADME, organism-based. The conditions noted are these: male, human, plasma.
The nature of data set [24]: Cmax/dose of aliskiren hemifumarate following 4 week oral dietary dosing of aliskiren hemifumarate at 500 mg.Kg-1 level in female mouse. The format is ADME, organism-based, CB6F1-TGrasH2. Particulars: in vivo, 672 h.
Data set [25] is described as follows: Tmax of aliskiren hemifumarate following 2 week oral dosing of aliskiren hemifumarate at 100 mg.Kg-1 level studied on day 1 in female Callithrix jacchus. The format is ADME, organism-based. Particulars: marmoset, plasma.
The nature of data set [26]: Tmax of aliskiren hemifumarate following single dosing of SPP100B oral solution at 40 mg level studied on day 1 in men. Particulars: male, human, plasma. The format is ADME, organism-based.
The nature of data set [27]: Elimination half-life of aliskiren hemifumarate following repeated oral administration of [14C] aliskiren hemifumarate at 100 mg.Kg-1 level studied in rat. The conditions noted are these: in vivo. The format is ADME, organism-based, Albino HAN:WIST.
Data set [28] can be described thus: AUCspec of aliskiren hemifumarate following 2 week oral dosing of aliskiren hemifumarate at 50 mg.Kg-1 level studied on day 1 in male Callithrix jacchus. The data set is classed as ADME, organism-based, Plasma. Particulars: marmoset, in vivo, 336 h.
A short description of data set [29]: Effect of 2 week oral dosing of aliskiren hemifumarate at 100 mg.Kg-1 level on blood urea nitrogen level in male Callithrix jacchus. The data set is classed as toxicity, organism-based, Plasma. The conditions noted are these: marmoset, 336 h.
The nature of data set [30]: Cmax of aliskiren hemifumarate following single dosing of SPP100B oral solution at 80 mg level studied on day 1 in men. The format is ADME, organism-based. The conditions noted are these: male, human, plasma.
The nature of data set [31]: Tmax of aliskiren hemifumarate following repeated oral administration of [14C] aliskiren hemifumarate at 100 mg.Kg-1 level studied after 2h of dosing on day 1 in rat. The data set is classed as ADME, organism-based, Albino HAN:WIST. Particulars: in vivo.
The nature of data set [32]: Cmaxspec of aliskiren hemifumarate following 2 week oral dosing of aliskiren hemifumarate at 100 mg.Kg-1 level studied on day 14 in female Callithrix jacchus. Particulars: marmoset, in vivo, 336 h. The format is ADME, organism-based, Plasma.
A short description of data set [33]: Cmaxspec of aliskiren hemifumarate following 2 week oral dosing of aliskiren hemifumarate at 10 mg.Kg-1 level studied on day 1 in female Callithrix jacchus. Particulars: marmoset, in vivo, 336 h. The data set is classed as ADME, organism-based, Plasma.
The nature of data set [34]: Effect of 4 week oral dietary dosing of aliskiren hemifumarate at 500 mg.Kg-1 level on spermatogenesis in male mouse. The format is toxicity, organism-based, CB6F1-TGrasH2, Testis. The conditions noted are these: in vivo, 672 h.
Data set [35] in a line: Cmax of aliskiren hemifumarate following repeated oral administration of [14C] aliskiren hemifumarate at 100 mg.Kg-1 level studied after 2h of dosing on day 10 in rat. The conditions noted are these: in vivo, read-out: Cmax(10). The format is ADME, organism-based, Albino HAN:WIST.

CYP2C19, sequence (P33261 whole entry): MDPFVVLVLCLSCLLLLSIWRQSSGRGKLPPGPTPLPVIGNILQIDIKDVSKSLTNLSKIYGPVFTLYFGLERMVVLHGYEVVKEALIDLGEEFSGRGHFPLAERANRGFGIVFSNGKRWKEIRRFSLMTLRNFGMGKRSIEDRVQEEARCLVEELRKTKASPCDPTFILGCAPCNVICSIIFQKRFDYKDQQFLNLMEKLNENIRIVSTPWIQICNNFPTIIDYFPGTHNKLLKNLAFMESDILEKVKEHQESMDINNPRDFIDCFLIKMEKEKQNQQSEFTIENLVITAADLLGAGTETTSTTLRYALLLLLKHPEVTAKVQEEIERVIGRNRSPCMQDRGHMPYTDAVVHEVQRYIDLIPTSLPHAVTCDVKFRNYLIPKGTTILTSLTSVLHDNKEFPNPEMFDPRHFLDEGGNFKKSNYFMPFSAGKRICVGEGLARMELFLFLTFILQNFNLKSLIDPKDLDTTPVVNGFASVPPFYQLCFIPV
Cytochrome P450 2E1, sequence (P05181 whole entry): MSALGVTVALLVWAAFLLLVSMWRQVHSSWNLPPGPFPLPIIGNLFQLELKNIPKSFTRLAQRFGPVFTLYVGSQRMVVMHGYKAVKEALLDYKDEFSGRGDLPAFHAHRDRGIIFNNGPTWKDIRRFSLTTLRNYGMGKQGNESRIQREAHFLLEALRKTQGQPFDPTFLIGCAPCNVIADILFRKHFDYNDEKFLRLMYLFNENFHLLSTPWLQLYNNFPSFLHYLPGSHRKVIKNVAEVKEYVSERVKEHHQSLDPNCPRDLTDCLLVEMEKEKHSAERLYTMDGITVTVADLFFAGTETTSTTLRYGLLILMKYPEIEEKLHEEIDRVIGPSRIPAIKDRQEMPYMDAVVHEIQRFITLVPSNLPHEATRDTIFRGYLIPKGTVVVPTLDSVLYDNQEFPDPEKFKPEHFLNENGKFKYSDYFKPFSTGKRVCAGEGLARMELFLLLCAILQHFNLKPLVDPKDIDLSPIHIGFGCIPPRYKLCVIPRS
CYP3A4, sequence (P08684 whole entry): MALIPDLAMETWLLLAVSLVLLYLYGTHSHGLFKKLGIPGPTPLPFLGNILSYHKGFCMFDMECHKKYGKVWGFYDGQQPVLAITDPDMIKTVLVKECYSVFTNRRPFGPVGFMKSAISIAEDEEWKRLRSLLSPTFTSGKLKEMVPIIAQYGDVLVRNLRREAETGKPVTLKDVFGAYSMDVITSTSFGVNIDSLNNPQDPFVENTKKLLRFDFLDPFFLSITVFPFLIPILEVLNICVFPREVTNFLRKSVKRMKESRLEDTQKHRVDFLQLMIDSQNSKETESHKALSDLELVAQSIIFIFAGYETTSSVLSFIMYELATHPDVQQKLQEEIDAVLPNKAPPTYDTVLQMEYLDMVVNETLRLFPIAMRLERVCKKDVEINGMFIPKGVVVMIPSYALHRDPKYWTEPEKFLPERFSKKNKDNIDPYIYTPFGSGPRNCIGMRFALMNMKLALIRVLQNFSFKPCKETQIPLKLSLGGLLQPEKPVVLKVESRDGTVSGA
CYP2C9, sequence (P11712 whole entry, the tested form may be a part): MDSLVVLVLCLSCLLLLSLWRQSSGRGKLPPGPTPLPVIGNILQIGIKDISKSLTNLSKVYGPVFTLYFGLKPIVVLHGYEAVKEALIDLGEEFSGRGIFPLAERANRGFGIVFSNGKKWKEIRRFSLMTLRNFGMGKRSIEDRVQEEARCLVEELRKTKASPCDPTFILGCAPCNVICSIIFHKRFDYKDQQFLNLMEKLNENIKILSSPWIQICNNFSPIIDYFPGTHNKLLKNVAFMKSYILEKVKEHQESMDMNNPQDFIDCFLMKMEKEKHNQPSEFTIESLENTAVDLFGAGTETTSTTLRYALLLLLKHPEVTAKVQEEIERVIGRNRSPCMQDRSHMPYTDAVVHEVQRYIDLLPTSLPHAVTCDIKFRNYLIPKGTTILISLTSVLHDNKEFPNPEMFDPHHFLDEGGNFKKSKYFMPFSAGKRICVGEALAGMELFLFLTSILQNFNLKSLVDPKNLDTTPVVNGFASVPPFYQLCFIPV

Turning to `COCCCOc1cc(C[C@@H](C[C@H](N)[C@@H](O)C[C@H](C(=O)NCC(C)(C)C(N)=O)C(C)C)C(C)C)ccc1OC`, the inhibition at 200 µM at CYP3A4 was 11%; on CYP2C9, 15.8%. Also, the F in [1] is less than 3%. This molecule came in with an inhibition at 20 µM at CYP2C19 of 5.1%. In addition, in data set [2], the Compound recovery is recorded as 36%.
For the molecule `COCCCOc1cc(C[C@@H](C[C@H](N)[C@@H](O)C[C@H](C(=O)NCC([14CH3])([14CH3])C(N)=O)C(C)C)C(C)C)ccc1OC.O=C(O)/C=C/C(=O)O`, the figures for the Tmax in data set [3] and in data set [9] were 2 h and 1 h, respectively. In addition, the Radiolabel recovery entry in [4] was “OUTCOME = Detected”; in data set [5], 90%; in data set [6], 95.25%; in data set [7] it was 73%; in data set [8], “OUTCOME = Detected”; in data set [10], 0.6%. The Radiolabel recovery result is reported as “OUTCOME = Observed, VALUE = Elimination of aliskiren occurred mainly via the biliary or faecal route” in data set [11]; “OUTCOME = Detected” in data set [12]; 7.51% in data set [14]; 0.68% in [15]. Also, the Cmax in data set [13] was found to be 473 nM. In addition, the Activity on Cytochrome P450 2E1 is listed as 0.06%.
Regarding `COCCCOc1cc(C[C@@H](C[C@H](N)[C@@H](O)C[C@H](C(=O)NCC(C)(C)C(N)=O)C(C)C)C(C)C)ccc1OC.COCCCOc1cc(C[C@@H](C[C@H](N)[C@@H](O)C[C@H](C(=O)NCC(C)(C)C(N)=O)C(C)C)C(C)C)ccc1OC.O=C(O)/C=C/C(=O)O` [ALISKIREN FUMARATE], the Tmax in data set [16] worked out at 3 h; in data set [25], 1 h; in [26], 1.6 h. Besides, the Change in spermatogenesis result in data set [17] and in data set [34] was “OUTCOME = No abnormalities. No animals died during the study” throughout. The “Change in corpora lutea” value in data set [18] is given as “OUTCOME = Absence of corpora lutea. No animals died during the study”. This molecule showed a half-life in data set [19] of 5.63 h. Also, the highest concentration (Cmax) in data set [20] was 7200 ng/mL; in [23], 6.2 ng/mL; in data set [30] it was 11 ng/mL; in [35], 357 nM. Besides, the AUC(0-t) at 24 h in data set [21] came to 84000 ng·h/mL. For the same molecule, the AUC normalised in data set [22] was 3.65 ((ng/mL).hours)/(mg/kg/day); in [28], 1.16 ((ug.h.ml-1)/(mg/kg). Besides, the figures for the Cmax normalised in data set [24], in data set [32] and in [33] were 0.128 (ng/mL)/(mg/kg/day), 0.106 (ug/ml)/(mg/kg) and 0.396 (ug/ml)/(mg/kg), respectively. Moreover, the t1/2 in data set [27] was 39.5 h. The BUN_CHANGE_BY in [29] amounted to 166%. Moreover, the “Tmax(1)” value in data set [31] was 2 h.

These data come from ChEMBL document CHEMBL3508693 (2016).
